Assay results reported in patent publication US20100068793A1, “DEVICES AND METHODS FOR PRODUCTION OF CELL AGGREGATES” (priority 2007, published 2010).
“Also recorded” adds a separate entry of the source.

Key:
hESC [1] = assay: Aggregate formation from hESC cultured on Matrigel after BMP pre-differentiation; format: cell-based, human; settings: 50 ng/mL BMP4 pre-differentiation, control without BMP4 formed no aggregates
Protocol: Prepare a single-cell suspension by treating the hESC culture with TrypIE for 5 minutes, and washing the cells off with X-Vivo10
Count cells, spin down and re-suspend to 1 million cells/mL in X-Vivo or other medium of interest. Cells may all derive from a single culture, or cells from different sources may be combined.

hESC [2] = assay: Forced aggregation of hESC with or without ROCK inhibitor Y-27632; format: cell-based, human
Protocol: d) form aggregates in the presence of 10 μM Y27632 5. Suspend cells in X-vivo10 or other medium of interest at a concentration appropriate to the desired EB size and plate format (e.g. to form aggregates from 10,000 cells in 100 μL medium each in 96-well plates, suspend 1 million cells in 10 mL; for aggregates from 2,000 cells in 25 μL medium each in 384-well plates, suspend 0.8 million cells in 10 mL. NB multichannel pipettes or automated liquid handling systems often require a minimum “dead volume”, thus it may be necessary to make 10-20% additional volume of suspension depending on the specifics of the equipment employed. 6. Dispense the cell suspension into the well plates prepared in step 2. 7. Centrifuge for 5 minutes at 240×g 8. Incubate overnight at 37 degrees, 5% CO2 in a standard tissue culture incubator. 9. Recover EBs by pipetting using large-bore or cut-off pipette tips or by inverted centrifugation in the device described and illustrated in FIG. 1 or 2 for 1 minute at 20×g hESC were cultured on Matrigel in conditioned medium or with 48 hours of pre-differentiation in serum-containing medium, and were subjected to the forced aggregation protocol at 2,000 cells per well with or without addition of 10 μM of the ROCK inhibitor Y-27632. […] In the absence of both, no aggregates were formed (N.D.—size not determined). […]

Q: With “BMP4: bone morphogenetic protein growth factor used for pre-differentiation” as the molecule, how does the “stable aggregate formation after BMP4 pre-differentiation” value (hESC [1]) read?
A: The value was “Aggregates formed from the pre-differentiated population”.

Q: With `C[C@@H](N)[C@H]1CC[C@H](C(=O)Nc2ccncc2)CC1` [Y-27632] as the molecule, how does the “aggregate size and symmetry” value (hESC [2]; 10 μM Y-27632, hESC cultured on Matrigel, 2,000 cells per well, with or without 48 hours pre-differentiation in serum-containing medium) read?
A: The value was “size and symmetry of aggregates are improved; also recorded: substantially increased aggregate size and symmetry”.

Q: What about the “aggregate formation / stability (SISO-aggregates, cross-sectional area)” value (hESC [2]; 10 μM Y-27632 added to cell suspension immediately prior to dispensing, hESC on Matrigel in MEF-conditioned medium, with or without 48 hours predifferentiation in 20% serum) of the same molecule?
A: Its value is “sizeable aggregates resulted”.
